We go through 27 compounds from patent US7125990B2, “Imidazolyl derivatives as corticotropin releasing factor inhibitors” (Bristol-Myers Squibb COmpany, priority 2001, dated 2006).

This assay addresses T1, CRF1 receptors (Homo sapiens, UniProt P34998).
T1 construct: endogenous in cells; host or cells: IMR-32 cells, transformed with 2.5 µM 5'-bromo-2'-deoxyuridine for 10 days; membrane preparation
T1 sequence (P34998 24-415): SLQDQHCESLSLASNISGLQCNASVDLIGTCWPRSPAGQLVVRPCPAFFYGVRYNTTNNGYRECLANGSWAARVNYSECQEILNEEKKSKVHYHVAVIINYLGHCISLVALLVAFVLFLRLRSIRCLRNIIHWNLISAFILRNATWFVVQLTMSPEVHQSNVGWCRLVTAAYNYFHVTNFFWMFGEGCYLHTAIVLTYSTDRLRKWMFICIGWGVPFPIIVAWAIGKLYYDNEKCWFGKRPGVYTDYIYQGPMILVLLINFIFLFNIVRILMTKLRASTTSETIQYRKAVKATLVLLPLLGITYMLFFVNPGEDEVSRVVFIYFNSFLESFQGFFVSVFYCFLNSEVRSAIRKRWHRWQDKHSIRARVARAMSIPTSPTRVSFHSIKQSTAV
Nature of the assay: CRF1 receptor radioligand binding assay ([125I]-oCRF competition, IMR-32 cell membranes). The conditions noted are these: IMR-32 cell membranes, [125I]-oCRF 100 pM; read-out: Ki (CRF-1R). An outline of the steps:
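Buffer: Tris pH 7.2 with MgCl2, BSA, Triton X-100, aprotinin, leupeptin; reaction stopped with ice-cold wash and filtered. Nonspecific binding set with 10 μM oCRF.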

What is called Ki is a measure of affinity in units of concentration, obtained from inhibition or displacement. `CC(C)c1ccc(-n2c3ccccc3n3c(CN(CCC(F)(F)F)Cc4ccccc4)c(C(F)(F)F)nc23)c(Br)c1` [Example 202, Benzyl-[8-(2-bromo-4-isopropyl-phenyl)-2-trifluoromethyl-8H-1,3a,8-triaza-cyclopenta[α]inden-3-ylmethyl]-(3,3,3-trifluoro-propyl)-amine]: the Ki is under 10000 nM.
For the compound `Cc1cc(C)c(N2CCCn3c2nc(C(F)(F)F)c3CN(CCC2CC2)CCC(F)(F)F)c(Cl)c1` [Example 122, [8-(2-Chloro-4,6-dimethyl-phenyl)-2-trifluoromethyl-5,6,7,8-tetrahydro-imidazo[1,2-a]pyrimidin-3-ylmethyl]-(2-cyclopropyl-ethyl)-(3,3,3-trifluoro-propyl)-amine], the inhibitory constant (Ki) is under 1000 nM.
With `CCN(CCc1ccccc1)Cc1c(C(F)(F)F)nc2n1CCCN2c1c(C)cc(C)cc1Cl` [Example 120, [8-(2-Chloro-4,6-dimethyl-phenyl)-2-trifluoromethyl-5,6,7,8-tetrahydro-imidazo[1,2-a]pyrimidin-3-ylmethyl]-ethyl-phenethyl-amine], the Ki was under 1000 nM.
On to `CCCN(Cc1c(C(F)(F)F)nc2n(-c3c(C)cc(C)cc3C)c3ncccc3n12)CC(F)(F)C(F)(F)F` [Example 224, (2,2,3,3,3-Pentafluoro-propyl)-propyl-[2-trifluoromethyl-8-(2,4,6-trimethyl-phenyl)-8H-1,3a,7,8-tetraaza-cyclopenta[α]inden-3-ylmethyl]-amine], for which the inhibitory constant (Ki) is under 1000 nM.
With `Cc1cc(C)c(-n2c(Cl)cn3c(CN(CC4CC4)CC(F)(F)F)c(C(F)(F)F)nc23)c(C)c1` [Example 304, [6-Chloro-2-trifluoromethyl-7-(2,4,6-trimethyl-phenyl)-7H-imidazo[1,2-a]imidazol-3-ylmethyl]-cyclopropylmethyl-(2,2,2-trifluoro-ethyl)-amine] the figure was under 10 nM; with `Cc1cc(C)c(N2CCCn3c2nc(C(F)(F)F)c3CN(C)Cc2ccccc2)c(Cl)c1` [Example 107, Benzyl-[8-(2-chloro-4,6-dimethyl-phenyl)-2-trifluoromethyl-5,6,7,8-tetrahydro-imidazo[1,2-a]pyrimidin-3-ylmethyl]-methyl-amine], under 1000 nM; with `Cc1cc(C)c(N2CCCn3c2nc(C(F)(F)F)c3CN(Cc2ccccc2)CC(F)(F)F)c(C)c1` [Example 85, Benzyl-(2,2,2-trifluoro-ethyl)-[2-trifluoromethyl-8-(2,4,6-trimethyl-phenyl)-5,6,7,8-tetrahydro-imidazo[1,2-a]pyrimidin-3-ylmethyl]-amine], under 10000 nM.
With `CCCN(CCC(F)(F)F)Cc1c(C(F)(F)F)nc2n(-c3ccc(C(C)C)cc3Br)c3ccccc3n12` [Example 197, [8-(2-Bromo-4-isopropyl-phenyl)-2-trifluoromethyl-8H-1,3a,8-triaza-cyclopenta[α]inden-3-ylmethyl]-propyl-(3,3,3-trifluoro-propyl)-amine] the figure was under 1000 nM; with `Cc1cc(C)c(N2CCCn3c2nc(C(F)(F)F)c3CN(CCc2ccccc2)CC(F)(F)F)c(C)c1` [Example 82, Phenethyl-(2,2,2-trifluoro-ethyl)-[2-trifluoromethyl-8-(2,4,6-trimethyl-phenyl)-5,6,7,8-tetrahydro-imidazo[1,2-a]pyrimidin-3-ylmethyl]-amine], under 100 nM; with `Cc1cc(C)c(N2CCCn3c2nc(C(F)(F)F)c3CN(CCC(F)(F)F)Cc2ccc(F)cc2)c(C)c1` [Example 91, (4-Fluoro-benzyl)-[2-trifluoromethyl-8-(2,4,6-trimethyl-phenyl)-5,6,7,8-tetrahydro-imidazo[1,2-a]pyrimidin-3-ylmethyl]-(3,3,3-trifluoro-propyl)-amine], under 1000 nM.
With `CCCN(CCOC)Cc1c(C(F)(F)F)nc2n1CCCN2c1c(C)cc(C)cc1Cl` [Example 110, [8-(2-Chloro-4,6-dimethyl-phenyl)-2-trifluoromethyl-5,6,7,8-tetrahydro-imidazo[1,2-a]pyrimidin-3-ylmethyl]-(2-methoxy-ethyl)-propyl-amine] the figure was under 1000 nM; with `CCCN(Cc1ccc([N+](=O)[O-])cc1)Cc1c(C(F)(F)F)nc2n(-c3c(C)cc(C)cc3C)c(Cl)cn12` [Example 313, [6-Chloro-2-trifluoromethyl-7-(2,4,6-trimethyl-phenyl)-7H-imidazo[1,2-a]imidazol-3-ylmethyl]-(4-nitro-benzyl)-propyl-amine], under 1000 nM.
Regarding `CCc1nc2n(-c3c(C)cc(C)cc3C)c(Cl)cn2c1C(=O)N(CC1CC1)CC(F)(F)F` [Example 296, 6-Chloro-2-ethyl-7-(2,4,6-trimethylphenyl)-7H-imidazo[1,2-a]imidazole-3-carboxylic acid N-cyclopropylmethyl-N-(2,2,2-trifluoroethyl)amide], the inhibition constant Ki was under 10 nM.
With `CCCN(CC(F)(F)F)C(=O)c1c(CC)nc2n1CCN2c1c(C)cc(Cl)cc1Cl` [Example 33, 7-(2,4-Dichloro-6-methyl-phenyl)-2-ethyl-6,7-dihydro-5H-imidazo[1,2-a]imidazole-3-carboxylic acid propyl-(2,2,2-trifluoro-ethyl)-amide] the figure was under 100 nM; with `CCCN(Cc1c(C(F)(F)F)nc2n(-c3c(C)cc(C)cc3C)c3ccccc3n12)CC(F)(F)F` [Example 159, Propyl-(2,2,2-trifluoro-ethyl)-[2-trifluoromethyl-8-(2,4,6-trimethyl-phenyl)-8H-1,3a,8-triaza-cyclopenta[α]inden-3-ylmethyl]-amine], under 100 nM.
On to `Cc1cc(C)c(-n2c(Cl)cn3c(CN4CCC(c5ccccc5)C4)c(C(F)(F)F)nc23)c(C)c1` (stereo not drawn) [Example 317, 2-Chloro-5-(3-phenyl-pyrrolidin-1-ylmethyl)-6-trifluoromethyl-1-(2,4,6-trimethyl-phenyl)-1H-imidazo[1,2-a]imidazole], for which the inhibition constant Ki was under 1000 nM.
`CCCN(Cc1c(C)nc2n(-c3c(C)cc(C)cc3C)c3ccc(F)cc3n12)CC1CC1` [Example 145, Cyclopropylmethyl-[5-fluoro-2-methyl-8-(2,4,6-trimethyl-phenyl)-8H-1,3a,8-triaza-cyclopenta[a]inden-3-ylmethyl]-propyl-amine]: the Ki was under 100 nM.
With `CCCN(CC1CC1)C(=O)c1c(C)nc2n1CCN2c1c(C)cc(C)cc1C` [Example 1, 2-Methyl-7-(2,4,6-trimethyl-phenyl)-6,7-dihydro-5H-imidazo[1,2-α]imidazole-3-carboxylic acid cyclopropylmethyl-propyl-amide] the figure was under 1000 nM; with `CCCC(CCC)c1c(CC)nc2n1CCN2c1c(C)cc(C)cc1C` [Example 49, 6-Ethyl-5-(1-propyl-butyl)-1-(2,4,6-trimethyl-phenyl)-2,3-dihydro-1H-imidazo[1,2-a]imidazole], under 1000 nM; with `CCN(CCc1ccccc1)Cc1c(C(F)(F)F)nc2n(-c3c(C)cc(C)cc3C)c3ncccc3n12` [Example 218, Ethyl-phenethyl-[2-trifluoromethyl-8-(2,4,6-trimethyl-phenyl)-8H-1,3a,7,8-tetraaza-cyclopenta[α]inden-3-ylmethyl]-amine], under 1000 nM.
With `C=CCN(CC=C)Cc1c(C(F)(F)F)nc2n(-c3ccc(C(C)C)cc3Br)c3ccccc3n12` [Example 192, Diallyl-[8-(2-bromo-4-isopropyl-phenyl)-2-trifluoromethyl-8H-1,3a,8-triaza-cyclopenta[α]inden-3-ylmethyl]-amine] the figure was under 1000 nM; with `CCN(Cc1c(C(F)(F)F)nc2n(-c3c(C)cc(C)cc3C)c3ccccc3n12)CC1CC1` [Example 154, Cyclopropylmethyl-ethyl-[2-trifluoromethyl-8-(2,4,6-trimethyl-phenyl)-8H-1,3a,8-triaza-cyclopenta[α]inden-3-ylmethyl]-amine], under 100 nM.
The figure for `CCCN(Cc1c(CC)nc2n(-c3c(C)cc(C)cc3C)c3ccccc3n12)CC1CC1` [Example 147, Cyclopropylmethyl-[2-ethyl-8-(2,4,6-trimethyl-phenyl)-8H-1,3a,8-triaza-cyclopenta[a]inden-3-ylmethyl]-propyl-amine] is under 100 nM; for `CCCN(Cc1c(C(F)(F)F)nc2n1CCCN2c1c(C)cc(C)cc1Cl)CC(F)(F)F` [Example 114, [8-(2-Chloro-4,6-dimethyl-phenyl)-2-trifluoromethyl-5,6,7,8-tetrahydro-imidazo[1,2-a]pyrimidin-3-ylmethyl]-propyl-(2,2,2-trifluoro-ethyl)-amine] it is under 1000 nM; for `CCCN(CCc1ccccc1)C(=O)c1c(CC)nc2n1CCN2c1c(C)cc(C)cc1Br` [Example 41, 7-(2-Bromo-4,6-dimethyl-phenyl)-2-ethyl-6,7-dihydro-5H-imidazo[1,2-a]imidazole-3-carboxylic acid phenethyl-propyl-amide] it is under 1000 nM.
On to `CCCN(CC1CCC1)C(=O)c1c(CC)nc2n1CCN2c1c(C)cc(C)cc1Br` [Example 42, 7-(2-Bromo-4,6-dimethyl-phenyl)-2-ethyl-6,7-dihydro-5H imidazo[1,2-a]imidazole-3-carboxylic acid cyclobutylmethyl-propyl-amide], for which the Ki was under 1000 nM.
For the compound `CCCN(CC1CC1)C(=O)c1c(C(F)(F)F)nc2n(-c3c(C)cc(C)cc3C)c3ccccc3n12` [Example 142, 2-trifluoromethyl-8-(2,4,6-trimethylphenyl)-8H-1,3a,8-triaza-cyclopenta[a]indene-3-carboxylic acid cyclopropylmethyl-propyl-amide], the inhibition constant (Ki) is under 10000 nM.
